According to US6699834B1, “Method for treating cancer” (University of Maryland Biotechnology Institute, priority 1997, dated 2004):

Columns and labels:
[1] = test system: HIV-1; conditions: for HIV in vitro Inhibition: inhibition of HIV-1 replication in vitro (HIV-1 strains and HIV-1 primary isolates)
Text: To prepare HIV infected cells for the in vitro assay of hCG preparations and β-hCG peptides and derivatives, primary PBMCs, macrophages, and CD4^+ T cells isolated from peripheral blood and the H9 human T cell line, were acutely or chronically infected with 8 different HIV-1 strains: 4 cell line adapted viruses, namely the macrophage tropic Ba-L strain (Gartner et al., 1986, Science 233:215-219) and the CD4^+ T cell tropic MN, RF, and IIIB strains (10^5 TCID50/ml) (Popovic et al., 1984, Science […]; Gallo et al.; 1984, Science 224:500-503); 2 isolates, Ju1083 and G3, from Nigerian AIDS patients passed once in a CD4^+ T cell line (Sub-T1); and 2 primary (“clinical”) isolates from AIDS patients from Trinidad which were never passed in any cell line and were used at a titer of 7.5×10^4TCID50/ml. In all experiments; HIV1 (10^5 TCID50/ml) was added to the cells(10^6 cells/ml) for a 2 hour incubation after which the virus infected cells were washed with 10 ml phosphate buffered saline (PBS) three times to eliminate extra cellular virus. The test inhibitor, i.e. the hCG or β-hCG peptide preparation was then added and the cells were incubated with the test inhibiter for 9 to 10 days with serial sampling. Cultures were assayed for p24 antigen on days 3 to 10.
Peptides of the α- and β-subunits (0.05 to 50 nmoles/ml), native α chain preparation, and various crude preparations of the native hCG heterodimer (0.01 to 1,000 IU) and the native β-hCG subunit (100 to 1,000 μg) were tested for effects on HIV-1 replication in acutely infected cells-by measuring change in viral antigen levels in response to the above noted preparations (FIGS. 4A-D and Table 3).
The fractions were then tested for anti-HIV, anti-KS and pro-hematopoietic activities in vitro. To assay for inhibition of HIV-1 replication in vitro, the HIV-1 […] viral strain was used to infect PBMCs and PM-1 cells (derived from the HUT-78 T-cell lymphoma cell line) at 10^3 TCID50/ml as described in detail herein.

[2] = test system: Kaposi's Sarcoma induced in mice; assay: Kaposi's Sarcoma tumors induced in mice by KS Y-1 cells; format: in vivo; conditions: for KS in vivo: inhibition of Kaposi's Sarcoma induced in mice; for effect on KS tumors in mice (in words): mouse, in vivo
Description: The effects of the peptides on KS tumor cells were also evaluated in vivo in the KS mouse model. To induce KS tumors in the mice, 1×10^6/ml KS Y-1 cells in 50 μl PBS or saline were injected subcutaneously into immunodeficient mice (beige-XID-BNX mice). […] Methods for detection of apoptosis (from tissue biopsies) were used, as described in Lunardi-Iskandar et al.(1995, Nature 375:64-68). Briefly, the samples were stained in situ for the presence of cells with DNA fragmentation. Tissue slides from formalin-fixed tumors were treated with terminal deoxynucleotide transferase for extension of DNA ends (hydroxyl 3′) and incorporation of digoxigenin-11-dUTP according to the manufacturer's instructions (Oncor, Gaithersburg, Md.). Anti-digoxigenin antibody conjugated with the enzyme peroxidase allowed detection of apoptotic cells, which stain brown, whereas viable cells stain blue.
Certain fractions were tested for activity in reducing Kaposi's Sarcoma lesions in the Kaposi's Sarcoma mouse model as described herein. In this assay, starting one week after injection of the KS Y-1 cells to induce Kaposi's sarcoma formation, the mice were injected subcutaneously with 100 IU hCG. […] After one week of the week of treatment with the hCG fractions, the KS lesions were examined for cell apoptosis and regression as described herein.
Certain fractions of the APL™ hCG and early pregnancy urine were assayed for their ability to elicit apoptosis in Kaposi's Sarcoma lesions induced by injection of KS Y-1 cells in mice (n=3 mice for each treatment). The mice were administered 100 μl subcutaneously of the particular fraction each day for one week.

[3] = test system: HIV RNA and protein expression; assay: HIV RNA and protein expression in HIV-1 transgenic mice; format: in vivo; conditions: for inhibition of HIV RNA and protein expression: inhibition of HIV RNA and protein expression in HIV-1 transgenic mice; for HIV-1 gene / protein expression in transgenic mice (in words): pups dosed via mother's milk
Text: (§1) The HIV-1 transgenic mice used for this study contain 7.4 kb of foreign DNA, including 5.1 kb of the HIV-1 proviral genome deleted in the gag and pol genes and 2.3 kb of vector (Dickie et al., 1991, Virology 185:109-119). […] In addition, these mice develop severe hyperkeratotic skin lesions with marked expression of gp 120 and nef genes (Kopp et al., 1993, AIDS Res. Hum. Retroviruses 9:267-275; Vasli et al., 1994, AIDS Res. Hum. Retroviruses 10:1241-1250).
Heterozygous transgenic mothers were treated with the hCG preparation subcutaneously twice weekly. Pups received hCG via the mother's milk.
Gene expression was assayed in total RNA extracted from the skin of Tg26 mice with RNAzol. One microgram of RNA was reverse transcribed into cDNA using random hexamer primers and […] reverse transcriptase (Life Technologies, MD) in a final volume of 30 μl. One tenth of the cDNA reactions were used for PCR amplification of various HIV gene sequences (env, tat, rev, nef and vif). In addition, glyceraldehyde 3-phosphate dehydrogenase (GAPHD) mRNA was amplified for each sample for normalization. Following 25 cycles of amplification, 10% of the PCR product was resolved by electrophoresis through 2% agarose gels and processed for Southern hybridization using FITC-labeled oligonucleotide probes complimentary to internal sequences of the amplicons. Detection was performed by chemiluminescence (Amersham) and relative mRNA levels determined by densitometry after normalization with GAPDH mRNA levels.
(§2) Finally, certain fractions were tested for their ability to increase survival, promote weight gain and reduce HIV-1 gene expression in HIV-1 transgenic mice as described herein.

[4] = test system: KS Y-1 and KS-SLK cells; assay: Kaposi's Sarcoma clonogenic assay in cultured cells; format: cell-based, human; conditions: for inhibition of KS cell growth in clonogenic assays (in words): KS Y-1 and KS SLK; for KS in vitro: inhibition of Kaposi's Sarcoma cell growth in vitro in cultured cells
Description: Briefly, the KS Y-1 cells were obtained from mononuclear cells isolated from pleural effusion of an AIDS patient with KS in the lungs. After the depletion of T lymphocytes, monocytes/macrophages and fibroblasts using monoclonal antibodies against CD2, CD3, CD4, CD8, CD10 and CD14 membrane antigens and baby rabbit complement, the cells were cultured in the absence of exogenous growth factors to select for transformed cells. […] Clonogenic assays were performed by seeding the KS Y-1 or KS-SLK cells in methylcellulose (0.8%, v/v), incubating the cells for 10 days in the presence or absence of the hCC, β-hCG or β-hCG peptide preparations and then counting the number of well-formed colonies of triplicate wells formed after seeding with 5×10^4 cells.
To assay for activity against Kaposi's sarcoma cell growth in vitro, the clonogenic assay described herein was used with the KS Y-1 and KS-SLK cultured Kaposi's Sarcoma cell lines,.

[5] = test system: lung cancer cells; assay: Clonogenic assay, lung cancer cells; format: cell-based; conditions: compared to PBS alone
Description: The hCG preparations, fractions of the early pregnancy urine and hCG APL™ SUPERDEX™ 200 fractionations (described herein), and certain β-hCG peptides were tested on prostate, lung, breast, and kidney cancer cells in vitro, and on prostate tumors in nude mice. […] The preparations fractions and peptides were also assayed using a clonogenic assay in which cells were seeded in methylcellulose in the presence or absence of test substance and then colonies were counted after a certain period of time. Cells were also examined for apoptosis by confocal microscopy.

[6] = test system: HIV-1 transgenic mice; assay: Survival, growth and weight of HIV-1 transgenic mouse pups; format: in vivo; conditions: HIV-1 transgenic pups
Description: as §1, §2
HIV-I transgenic pups administered hCG and hCG-related preparations for the first 5 days after birth through the mothers milk were monitored for survival at 10 days after birth.

[7] = test system: hematopoietic progenitor cells; assay: Hematopoietic progenitor clonogenic assays (CFU-GEMM, BFU-e, CFU-GM); format: cell-based, human; conditions: for Pro-hematopoiesis in vitro Enhancement: relative increase of hematopoietic colony cell number, hCG preparations 200 IU/ml, subunits and peptides 100 μg/ml
Description: The effect of hCG preparations and peptides was assayed on hematopoietic progenitor cells in vitro: Hematopoietic progenitor cells (2×10^5 cell/ml) were isolated from normal bone marrow and cord blood and seeded in methylcellulose. […] The hCG preparations were administered at 200 IU/ml and the β- and α-subunits and peptides were administered at 100 μg/ml. The native commercial preparation of hCG (APL™, Wyeth Ayerst) was pre-tested for anti-HIV and anti-KS activities. Aggregates containing more than 50 cells after 10 days of culture were counted as colonies.

Substance | inhibition of HIV-1 infection/replication in vitro (in words) [1] | HIV in vitro Inhibition [1] | KS in vivo [2] | effect on KS tumors in mice (in words) [2] | inhibition of HIV RNA and protein expression [3] | HIV-1 gene / protein expression in transgenic mice (in words) [3] | inhibition of KS cell growth in clonogenic assays (in words) [4] | KS in vitro [4] | colony formation [5] | weight gain / growth retardation and cachexia [6] | promotion of hematopoiesis (in words) [7] | Pro-hematopoiesis in vitro Enhancement [7]
3. 45-57: β-hCG amino acids 45-57 (SEQ ID NO:6) (LQGVLPALPQVVC) | inhibit HIV-1 replication in vitro | ++ (“++” represents greater than 40% effect) | ++ (“++” represents greater than 40% effect) | extensive cell death | ++ (“++” represents greater than 40% effect) | considerable inhibition | strongest anti-tumor effects | ++ (“++” represents greater than 40% effect) | inhibited colony formation | higher weight gain than untreated mice | directly promoted | ++ (“++” represents greater than 40% effect)
6. 45-57::109-119: β-hCG 45-57 linked at the C-terminus to the N-terminus of 109-119 (SEQ ID NO:30) (LQGVLPALPQVVCTCDDPRFQDSS) | inhibit HIV-1 replication in vitro | ++ (“++” represents greater than 40% effect) | ++ (“++” represents greater than 40% effect) | significant anti-KS activity | ++ (“++” represents greater than 40% effect) |  | strongest anti-tumor effects | ++ (“++” represents greater than 40% effect) | inhibited colony formation |  | directly promoted | ++ (“++” represents greater than 40% effect)
32. 48-56: β-hCG amino acids 48-56 (SEQ ID NO:35) (VLPALPQVV) | inhibited HIV-1 replication | + (“+” represents greater than 15% effect) | + (“+” represents greater than 15% effect) | some anti-KS activity | + (“+” represents greater than 15% effect) | elicited inhibition |  | + (“+” represents greater than 15% effect) |  |  | pro-hematopoietic effect | + (“+” represents greater than 15% effect)
13. 6-16: β-hCG amino acids 6-16 (RPRCRPINATL; UniProt P0DN86 26-36, looked up, fragment) |  | − (“−” represents less than 10% effect) | − (“−” represents less than 10% effect) |  | − (“−” represents less than 10% effect) |  |  | − (“−” represents less than 10% effect) |  |  |  | − (“−” represents less than 10% effect)
